Drawing on patent US20240400560A1, “BICYCLIC HETEROCYCLIC DERIVATIVE HAVING VIRAL GROWTH INHIBITORY ACTIVITY AND PHARMACEUTICAL COMPOSITION CONTAINING SAME” (Shionogi & Co., Ltd., priority 2021, published 2024), this text covers IC50 for 55 compounds.

The assay addresses SARS-CoV-2 3CL protease (Severe acute respiratory syndrome coronavirus 2, UniProt P0DTD1). Kind of assay: Inhibitory activity test against SARS-CoV-2 3CL proteases. It is filed as biochemical. Particulars: read-out: IC50 (50% SARS-CoV-2 3CL protease inhibitory concentration).
Regarding `Cn1cnc(Cn2c(=O)c3c(=O)n(C)c(-c4cc(C#N)ccc4Cl)cc3n(Cc3cc(F)c(F)c(Cl)c3)c2=O)n1` [Compound I-0162], the IC50 stood at 0.8 nM. On to `COc1cc(-c2cc(C#N)ccc2Cl)cc2c1c(=O)n(-c1cncc(C)c1)c(=O)n2Cc1cc(F)c(F)c(C#N)c1` [Compound I-0165], for which the IC50 came out at 1.2 nM. To `Cn1cnc(Cn2c(=O)c3c(=O)n(C)c(-c4cc(C#N)ccc4Cl)cc3n(Cc3cc(F)c(F)c(F)c3)c2=O)n1` [Compound I-0169] belongs 2.7 nM; to `Cn1cnc(Cn2c(=O)c3c(Cl)cc(-c4cc5c(cc4Cl)NC(=O)C5)cc3n(Cc3cc(F)c(F)c(Cl)c3)c2=O)n1` [Compound I-0171], 3.2 nM.

Turning to `Cn1cnc(Cn2c(=O)c3c(=O)[nH]c(-c4cc(C#N)ccc4Cl)cc3n(Cc3cc(F)c(F)c(Cl)c3)c2=O)n1` [Compound I-0172], the IC50 is less than 100 nM. With `Cn1cnc(Cn2c(=O)c3c(Cl)cc(-c4cc5cn[nH]c5cc4Cl)cc3n(Cc3cc(F)c(F)c(Cl)c3)c2=O)n1` [Compound I-0173] the figure was less than 100 nM; with `COc1nc(-c2cc(C#N)ccc2Cl)cc2c1c(=O)n(Cc1ncn(C)n1)c(=O)n2Cc1cc(F)c(F)c(Cl)c1` [Compound I-0174], 16 nM; with `Cn1cnc(Cn2c(=O)c3c(Cl)cc(-c4cc(C#N)ccc4Cl)cc3n(Cc3cc(F)c(F)c(Cl)c3)c2=O)n1` [Compound I-0175], less than 100 nM. Regarding `COc1nc(-c2cc(C#N)ccc2Cl)cc2c1c(=O)n(Cc1ncn(C)n1)c(=O)n2Cc1cc(F)c(F)c(F)c1` [Compound I-0176], the IC50 turned out to be 33 nM. With `Cn1cnc(Cn2c(=O)c3c(=O)[nH]c(-c4cc(C#N)ccc4Cl)cc3n(Cc3cc(F)c(F)c(F)c3)c2=O)n1` [Compound I-0177] the figure was 34 nM; with `COc1nc(-c2cc(C#N)ccc2Cl)cc2c1c(=O)n(-c1cncc(Cl)c1)c(=O)n2Cc1cc(F)c(F)c(F)c1` [Compound I-0178], less than 100 nM; with `COc1cc(-c2cc(CC(=O)NC3CCN(C)CC3)ccc2Cl)cc2c1c(=O)n(-c1cncc(Cl)c1)c(=O)n2Cc1cc(Cl)ccc1C` [Compound I-0187], 5 nM. With `COc1cc(-c2cc(S(C)(=N)=O)ccc2Cl)cc2c1c(=O)n(-c1cncc(Cl)c1)c(=O)n2Cc1cc(F)c(F)c(F)c1` (stereo not shown) [Compound I-0188] the figure was 5.8 nM. In the case of `COc1cc(-c2cc(CC(=O)NCCN(C)C)ccc2Cl)cc2c1c(=O)n(-c1cncc(Cl)c1)c(=O)n2Cc1cc(Cl)ccc1C` [Compound I-0189], the IC50 came to 7.1 nM.

Turning to `COc1cc(-c2cc(CC(N)=O)ccc2Cl)cc2c1c(=O)n(-c1cncc(Cl)c1)c(=O)n2Cc1cc(Cl)ccc1C` [Compound I-0191], the IC50 was less than 100 nM. Regarding `CNC(=O)c1ccc(Cl)c(-c2cc(OC)c3c(=O)n(-c4cncc(C)c4)c(=O)n(Cc4ccc(F)c(C#N)c4)c3c2)c1` [Compound I-0192], the IC50 is less than 100 nM. To `COc1cc(-c2cc(C(=O)NCCCO)ccc2Cl)cc2c1c(=O)n(-c1cncc(C)c1)c(=O)n2Cc1ccc(F)c(C#N)c1` [Compound I-0193] belongs 9 nM. On to `COc1cc(-c2cc(C(=O)NCCOCCO)ccc2Cl)cc2c1c(=O)n(-c1cncc(C)c1)c(=O)n2Cc1ccc(F)c(C#N)c1` [Compound I-0196], for which the IC50 was determined as 11 nM. To `COc1cc(-c2cc(CC(=O)NC3CCN(C)CC3)ccc2Cl)cc2c1c(=O)n(-c1cncc(Cl)c1)c(=O)n2Cc1cc(F)c(F)c(F)c1` [Compound I-0197] belongs less than 100 nM; to `COc1cc(-c2cc(CC(=O)O)ccc2Cl)cc2c1c(=O)n(-c1cncc(Cl)c1)c(=O)n2Cc1cc(Cl)ccc1C` [Compound I-0198], less than 100 nM; to `CN=S(C)(=O)c1ccc(Cl)c(-c2cc(OC)c3c(=O)n(-c4cncc(Cl)c4)c(=O)n(Cc4cc(F)c(F)c(F)c4)c3c2)c1` (stereo not shown) [Compound I-0199], 16 nM. On to `COc1cc(-c2cc(CC(=O)NC3CCN(C)CC3)ccc2Cl)cc2c1c(=O)n(-c1cncc(Cl)c1)c(=O)n2Cc1ccc(F)c(C#N)c1` [Compound I-0201], for which the IC50 is less than 100 nM. On to `COc1cc(-c2cc(CC(=O)NCCS(C)(=O)=O)ccc2Cl)cc2c1c(=O)n(-c1cncc(Cl)c1)c(=O)n2Cc1cc(F)c(F)c(F)c1` [Compound I-0202], for which the IC50 was 20 nM. For `COc1cc(-c2cc(CC(=O)NCCN(C)C)ccc2Cl)cc2c1c(=O)n(-c1cncc(Cl)c1)c(=O)n2Cc1ccc(F)c(C#N)c1` [Compound I-0203], the IC50 is less than 100 nM.

Regarding `COc1cc(-c2cc(CC(=O)NCCN(C)C)ccc2Cl)cc2c1c(=O)n(-c1cncc(Cl)c1)c(=O)n2Cc1cc(F)c(F)c(F)c1` [Compound I-0204], the IC50 was less than 100 nM.

Consider `COc1cc(-c2cc(CC(=O)N(C)C)ccc2Cl)cc2c1c(=O)n(-c1cncc(Cl)c1)c(=O)n2Cc1cc(Cl)ccc1C` [Compound I-0205], for which the IC50 was less than 100 nM.

Turning to `COc1cc(-c2cc(CC(N)=O)ccc2Cl)cc2c1c(=O)n(-c1cncc(Cl)c1)c(=O)n2Cc1cc(F)c(F)c(F)c1` [Compound I-0206], the IC50 was less than 100 nM.

For the compound `COc1cc(-c2cc(S(C)(=N)=O)ccc2Cl)cc2c1c(=O)n(Cc1ncn(C)n1)c(=O)n2Cc1cc(F)c(F)c(F)c1` (stereo not shown) [Compound I-0207], the IC50 stood at 23 nM. Consider `COc1cc(-c2cc(C(=O)N3CCOCC3)ccc2Cl)cc2c1c(=O)n(-c1cncc(C)c1)c(=O)n2Cc1ccc(F)c(C#N)c1` [Compound I-0209], for which the IC50 is less than 100 nM. On to `COc1cc(-c2cc(N=S(C)(C)=O)ccc2Cl)cc2c1c(=O)n(-c1cncc(Cl)c1)c(=O)n2Cc1cc(F)c(F)c(F)c1` [Compound I-0210], for which the IC50 was 28 nM.

In the case of `COc1cc(-c2cc(CC(=O)N3CC[C@H](N)C3)ccc2Cl)cc2c1c(=O)n(-c1cncc(Cl)c1)c(=O)n2Cc1cc(F)c(F)c(F)c1` [Compound I-0211], the IC50 is less than 100 nM. To `COc1cc(-c2cc(C(=O)NCCN(C)C)ccc2Cl)cc2c1c(=O)n(Cc1ncn(C)n1)c(=O)n2Cc1cc(F)c(F)c(F)c1` [Compound I-0212] belongs less than 100 nM; to `CNC(=O)c1ccc(Cl)c(-c2cc(OC)c3c(=O)n(Cc4ncn(C)n4)c(=O)n(Cc4cc(F)c(F)c(F)c4)c3c2)c1` [Compound I-0213], 33 nM; to `COc1cc(-c2cc(C(=O)NCCO)ccc2Cl)cc2c1c(=O)n(Cc1ncn(C)n1)c(=O)n2Cc1cc(F)c(F)c(F)c1` [Compound I-0214], less than 100 nM. To `COc1cc(-c2cc(C(=O)NCCNCCO)ccc2Cl)cc2c1c(=O)n(Cc1ncn(C)n1)c(=O)n2Cc1cc(F)c(F)c(F)c1` [Compound I-0216] belongs less than 100 nM. To `COc1cc(-c2cc(C(=O)NCCN3CCOCC3)ccc2Cl)cc2c1c(=O)n(Cc1ncn(C)n1)c(=O)n2Cc1cc(F)c(F)c(F)c1` [Compound I-0217] belongs less than 100 nM; to `Cc1cc2c(=O)n(Cc3ncn(C)n3)c(=O)n(Cc3cc(F)c(F)c(F)c3)c2cc1-c1cc2c(cc1Cl)NC(=O)C2` [Compound I-0248], 7.3 nM. For the compound `Cn1cnc(Cn2c(=O)c3cc(F)c(-c4cc5c(cc4Cl)NC(=O)C5)cc3n(Cc3cc(F)c(F)c(F)c3)c2=O)n1` [Compound I-0249], the IC50 came to 33 nM. To `Cn1cnc(Cn2c(=O)c3ccc(-c4cc5c(cc4Cl)NC(=O)C5)c(F)c3n(Cc3cc(F)c(F)c(F)c3)c2=O)n1` [Compound I-0250] belongs 35 nM. Turning to `COc1cc(-c2cc3[nH]c(=O)[nH]c3cc2Cl)cc2c1c(=O)n(Cc1ncn(C)n1)c(=O)n2Cc1cc(F)c(F)c(F)c1` [Compound I-0265], the IC50 is less than 100 nM. With `Cn1cnc(Cn2c(=O)c3c(F)cc(-c4cc5c(cc4Cl)NC(=O)C5)cc3n(Cc3cc(F)c(F)c(Cl)c3)c2=O)n1` [Compound I-0267], the IC50 is less than 100 nM. To `COc1cc(-c2c(Cl)ccc3c(=O)n(C)ccc23)cc2c1c(=O)n(Cc1ncn(C)n1)c(=O)n2Cc1cc(F)c(F)c(F)c1` [Compound I-0268] belongs 7.5 nM; to `Cn1cnc(Cn2c(=O)c3c(F)cc(-c4cc5cn[nH]c5cc4Cl)cc3n(Cc3cc(F)c(F)c(Cl)c3)c2=O)n1` [Compound I-0269], less than 100 nM. To `Cn1cnc(Cn2c(=O)c3c(F)cc(-c4cc5c(cc4Cl)NC(=O)C5)cc3n(Cc3cc(F)c(F)c(F)c3)c2=O)n1` [Compound I-0270] belongs less than 100 nM.

With `COc1cc(-c2cc(C#N)ccc2Cl)cc2c1c(=O)n(Cc1ncn(C)n1)c(=O)n2Cc1cc(F)c(F)c(Cl)c1` [Compound I-0271], the IC50 was less than 100 nM. With `COc1cc(-c2cc3cn[nH]c3cc2Cl)cc2c1c(=O)n(Cc1ncn(C)n1)c(=O)n2Cc1cc(Cl)c(F)cc1F` [Compound I-0272] the figure was less than 100 nM. Regarding `COc1cc(-c2c(Cl)ccc3c(=O)[nH]ccc23)cc2c1c(=O)n(Cc1ncn(C)n1)c(=O)n2Cc1cc(F)c(F)c(F)c1` [Compound I-0274], the IC50 amounted to 15 nM. To `COc1cc(-c2cc3c(cc2Cl)NC(=O)C3(C)C)cc2c1c(=O)n(Cc1ncn(C)n1)c(=O)n2Cc1cc(F)c(F)c(F)c1` [Compound I-0275] belongs 19 nM. `COc1cc(-c2cc(C(C)(C)O)ccc2Cl)cc2c1c(=O)n(Cc1ncn(C)n1)c(=O)n2Cc1cc(F)c(F)c(F)c1` [Compound I-0276]: the IC50 was determined as 24 nM. With `COc1cc(-c2c(Cl)ccc3c2CNC3=O)cc2c1c(=O)n(Cc1ncn(C)n1)c(=O)n2Cc1cc(F)c(F)c(F)c1` [Compound I-0277] the figure was 24 nM; with `COc1cc(-c2c(Cl)ccc3c2CN(C)C3=O)cc2c1c(=O)n(Cc1ncn(C)n1)c(=O)n2Cc1cc(F)c(F)c(F)c1` [Compound I-0278], 26 nM. On to `COc1cc(-c2cc(C#N)ccc2Cl)cc2c1c(=O)n(Cc1ncn(C)n1)c(=O)n2Cc1cc(Cl)c(F)cc1F` [Compound I-0279], for which the IC50 is less than 100 nM. To `Cn1cnc(Cn2c(=O)c3c(F)cc(-c4cc(C#N)ccc4Cl)cc3n(Cc3cc(F)c(F)c(Cl)c3)c2=O)n1` [Compound I-0281] belongs less than 100 nM; to `COc1cc(-c2cc(C(C)=O)ccc2Cl)cc2c1c(=O)n(Cc1ncn(C)n1)c(=O)n2Cc1cc(F)c(F)cc1F` [Compound I-0282], less than 100 nM; to `COc1cc(-c2cc(C3COC3)ccc2Cl)cc2c1c(=O)n(Cc1ncn(C)n1)c(=O)n2Cc1cc(F)c(F)c(F)c1` [Compound I-0283], 32 nM.
